A short description of data set [1]: in vivo. The settings on record: BALB/c, mouse.
The nature of data set [2]: in vivo. The settings on record: BALB/c, mouse. This is another data set of the same source.
A short description of data set [3]: in vivo. The settings on record: chimpanzee.
Data set [4] can be described thus: in vitro. The settings on record: human, liver microsomes.
The nature of data set [5]: in vivo. The settings on record: cynomolgus monkey.
Data set [6] in a line: in vitro. The settings on record: human, Caco-2.
Data set [7] is described as follows: in vivo. The settings on record: chimpanzee. This is another data set of the same source.
Data set [8] is described as follows: in vivo. The settings on record: BALB/c, mouse. The source holds these as a separate data set.
Data set [9] can be described thus: in vivo. The settings on record: chimpanzee. This is another data set of the same source.
A short description of data set [10]: in vivo. The settings on record: cynomolgus monkey. The source holds these as a separate data set.
Data set [11] in a line: in vivo. The settings on record: cynomolgus monkey. The source holds these as a separate data set.

The text below walks through data of ChEMBL document CHEMBL1140623, “CC chemokine receptor-3 (CCR3) antagonists: improving the selectivity of DPC168 by reducing central ring lipophilicity” (Bioorg Med Chem Lett, 2007).

Each structure is given as a SMILES string.

Turning to `CC(=O)c1sc(NC(=O)N[C@@H]2CN(C(C)=O)CC[C@H]2CN2CCC[C@@H](Cc3ccc(F)cc3)C2)nc1C`, the half-life in “in vivo [1]” was 1.2 h; in the data set “in vivo [7]”, 4.5 h; in the data set “in vivo [11]”, 5.5 h. The bioavailability worked out at 25% in the data set “in vivo [2]”, 7% in the data set “in vivo [3]” and 18% in “in vivo [5]”. This compound gave a CLint scaled in the data set “in vitro [4]” of 16 mL/min/kg. Besides, the Papp in the data set “in vitro [6]” stood at 2.8 ×10⁻⁶ cm/s. Moreover, the clearance in “in vivo [8]” is 41.7 mL/min/kg; in the data set “in vivo [9]” it was 21.7 mL/min/kg; in “in vivo [10]”, 14.5 mL/min/kg.
